Measured values reported in patent publication US20140011769A1, “Methods of Treating Retroviral Infections and Related Dosage Regimes” (Chimerix, Inc., priority 2012, published 2014).
“Also recorded” adds a separate entry of the source. Like-named read-outs stand apart in the source and are kept apart here.

Tested on: HTLV-I
Test: Co-culture assay for HTLV-I, virus replication by p19 Gag ELISA
Type: cell-based
Conditions: for concentration inhibiting HTLV-I replication as measured by p19 ELISA: 2 weeks; for antiviral activity: 2 weeks post infection, up to 25 μM; for EC50: read-out: HTLV-I EC50; for suppression of virus replication greater than 50% (p19 ELISA): 2 and 4 weeks co-culture; for concentration inhibiting HTLV-I virus replication from infected PBMCs: 3 weeks post-infection
Experimental: PBMC Preparation: Fresh human peripheral blood mononuclear cells (PBMCs), obtained from Biological Specialty Corporation, Bristol, Pa., were confirmed as seronegative for HIV and HBV. Depending on the volume of the donor blood received, the leukophoresed blood cells were washed several times with PBS. After washing, the leukophoresed blood was diluted 1:1 with Dulbecco's phosphate buffered saline (PBS) and layered over 15 mL of Ficoll-Hypaque density gradient in a 50 mL conical centrifuge tube. These tubes were then centrifuged for 30 min at 600 g. Banded PBMCs were gently aspirated from the resulting interface and subsequently washed three times with PBS by low speed centrifugation. After the final wash, cells were enumerated by trypan blue dye exclusion and re-suspended at 1×10^6 cells/mL in RPMI 1640 with 15% Fetal Bovine Serum (FBS), 2 mmol/L L-glutamine, 2 μg/mL phytohemagglutinin (PHA-P), 100 Units/mL penicillin and 100 μg/mL streptomycin and allowed to incubate for 48-72 hr at 37° C.
After incubation, PBMCs were centrifuged and resuspended in PBMC medium (RPMI 1640 with 15% FBS, 2 mmol/L L-glutamine, 100 U/mL penicillin, 100 μg/mL streptomycin and 20 U/mL recombinant human IL-2). The cultures were then maintained for the remainder of the experiment by exchange of half the culture volume with fresh IL-2 containing tissue culture medium every 3 days. Assays were initiated with PBMCs that had been induced to proliferate for 72 hr. Stimulated PBMCs from two donors were pooled together to minimize the variability between individual donors and 8×10^6 cells were resuspended in 9 mL of fresh tissue culture medium per T25 flask.
HDP-TFV was evaluated at concentrations of 0.04, 0.2, 1 and 10 μM. AZT and tenofovir were evaluated at concentrations of 0.1, 1, 5 and 25 μM. HDP-TFV, AZT, or tenofovir were added to the PBMCs 10 hours prior to infection.
MT-2 Preparation: MT-2 cells were obtained from the NIH AIDS Research and Reference Reagent Program and passaged in T-75 flasks in RPMI 1640 medium, supplemented with 10% heat inactivated fetal bovine serum, 2 mmol/L L-glutamine, 100 U/ml penicillin and 100 μg/ml streptomycin. Total cell and viability quantification were performed using hemocytometer and trypan blue dye exclusion. The cells were incubated in 10 mL of 200 μg/mL mitomycin C for 1 hour at 37° C./5% CO2, washed 3 times in Dulbecco's phosphate buffered saline (DPBS), and resuspended in PBMC medium at 1.6×10^6 cells per mL. One mL of treated MT-2 cells was added to each T25 flask, except for the PBMC only control.
Co-Culture for HTLV-I Replication: Cell cultures were incubated at 37° C./5% CO2 for four weeks. Cell viability and density was monitored by trypan blue dye exclusion test. Cell density was readjusted to 8×10^5 cells per mL on days 3, 7, 10, 14, 21 and 28. Compound was added with the half-volume fresh medium exchange on days 3, 7, and 10. Supernatant was collected on days 14, 21 and 28 for measurement of HTLV-I virus replication by p19 Gag ELISA. Cell samples were also collected on days 14 and 28 for genomic DNA extraction and PCR analysis of HTLV-I proviral DNA. Untreated PBMCs co-cultured with MT-2 cells, PBMCs alone, and mitomycin C-treated MT-2 cells alone were cultured in parallel as controls.
HTLV-I p19 Gag ELISA: ELISA was performed to quantify p19 in cell-free supernatants according to the manufacturer's instructions (ZeptoMetrix, Buffalo, N.Y.). Briefly, 50 μL of the kit p19 standard was added to 950 μL assay diluent in microtiter tubes and serially diluted 1:2. After washing the microtiter plate with 1× plate wash buffer, 200 μL of the diluted standards were added in duplicate to the coated wells. In duplicate, 200 μL of media was added as negative controls. Cell culture supernatants were diluted 1:9 with media and mixed with 50 μL of lysis buffer in duplicate. Two hundred microliters of diluted sample was added to the coated wells and incubated at 37° C. for 2 hours. […]

[1] = Primate T-lymphotropic virus 1, MT2, 336 h, 2 wks post infection, human PBMCs co-cultured with mitomycin C treated MT-2 cells
[2] = Primate T-lymphotropic virus 1, MT2, 504 h, 3 wks post infection, human PBMCs co-cultured with mitomycin C treated MT-2 cells
[3] = Primate T-lymphotropic virus 1, MT2, 672 h, 4 wks post infection, human PBMCs co-cultured with mitomycin C treated MT-2 cells

Row | SMILES | concentration inhibiting HTLV-I replication as measured by p19 ELISA | antiviral activity | EC50 [1] [µM] | EC50 [2] [µM] | EC50 [3] [µM] | suppression of virus replication greater than 50% (p19 ELISA) | concentration inhibiting HTLV-I virus replication from infected PBMCs | other results
1 | Cc1cn([C@H]2C[C@H](N=[N+]=[N-])[C@@H](CO)O2)c(=O)[nH]c1=O [AZT, 3′-azido-2′,3′-dideoxythymidine] | above 3 μM | no antiviral activity | > 25 | 3.2 | 2.6 |  |  | 
2 | Nc1ccn(C[C@@H](CO)OCP(=O)(O)O)c(=O)n1 [Cidofovir, (S)-9-(3-hydroxy-2-phosphonylmethoxypropyl)cytosine] |  |  | > 100 | 87.8 | > 100 | did not suppress | 100 µM | suppression of virus replication greater than 50% (p19 ELISA) (listed as cidofovir): not reached
3 | CCCCCCCCCCCCCCCCOCCCOP(=O)(O)CO[C@H](CO)Cn1ccc(N)nc1=O [HDP-CDV, hexadecyloxypropyl cidofovir] |  |  | > 10 | 0.4 | > 10 | did not suppress; also recorded: not reached | above 3 μM | concentration showing moderate antiviral activity (four weeks of infected PBMC culture, inhibition may be attributed to observed toxicity): ≥ 0.2 µM
4 | CCCCCCCCCCCCCCCCOCCCOP(=O)(O)CO[C@H](C)Cn1cnc2c(N)ncnc21 [HDP-TFV, 3-(hexadecyloxy)propyl hydrogen ((R)-1-(6-amino-9H-purin 9-yl)propan-2-yloxy)methylphosphonate] | above 7 μM |  |  |  |  |  |  | EC50 (Primate T-lymphotropic virus 1, MT2, 336 h): 6.8 µM; EC50 (Primate T-lymphotropic virus 1, MT2, 504 h): 0.9 µM; EC50 (Primate T-lymphotropic virus 1, MT2, 672 h): 0.2 µM
5 | C[C@H](Cn1cnc2c(N)ncnc21)OCP(=O)(O)O [Tenofovir, (R)-9-(2-phosphonylmethoxypropyl)adenine] |  | no antiviral activity |  |  |  |  |  | EC50 (2 wks post infection, human PBMCs co-cultured with mitomycin C treated MT-2 cells): > 25 µM; EC50 (3 wks post infection, human PBMCs co-cultured with mitomycin C treated MT-2 cells): 10.3 µM; EC50 (4 wks post infection, human PBMCs co-cultured with mitomycin C treated MT-2 cells): 4.5 µM
